Experimental data taken from the supplement of paper PMC11208160.

Experiment: recombinant UMI read abundance after kanamycin selection (control-corrected) (log10(CPM+1)); higher = more efficient recombination; extreme values may be limits of the assay; sequences stand for … in AGTGCAGAGAAAATCGGCCAGTTTTCTCTGCCTGCAGTCCGCATGCCGTGGGACCCCTTGGGTTCTAACCTGTTGCCTAGATTTATGCAGCGGACTGCCTTTCTCCCAAAGTGATAAACCGG…AGGTTGGTTTCACT; site = the 11-nt donor
Procedure, shortened: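 The measure is log10(CPM+1) for recombinant UMIs. These were PCR-amplified across the donor–target junction and sequenced after Escherichia coli carrying a donor and donor-binding-loop pair library and a target plasmid with T7-inducible IS621 bridge recombinase was plated on IPTG (0.07 mM) plus kanamycin or unselected. CPM were averaged over two replicates and scaled by control-derived factors.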
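Further: IS621 bridge recombinase in Escherichia coli cells against a fixed T5 target plasmid.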

Row | Sequence | recombinant UMI read abundance (log10)
1 | CCGTATACATGGACCGGTTTTCCCGGTAATCCGTATTTGAT (site CCGTATACTAT) | 0.449
2 | CCGTCATCATGGACCGGTTTTCCCGGTAATCCGTATTTGAT (site CCGTCATCTAT) | 0.00671
3 | CCGTCTGCATGGACCGGTTTTCCCGGTAATCCGTATTTGCT (site CCGTCTGCTAG) | 0.241
4 | CCGTGTACATGGACCGGTTTTCCCGGTAATCCGTATTTGCT (site CCGTATACTAG) | 0.0403
5 | CCGTGTACATGGACCGGTTTTCCCGGTAATCCGTATTTGCT (site CCGTCTACTAG) | 0.00869
6 | CCGTGTACATGGACCGGTTTTCCCGGTAATCCGTATTTGCT (site CCGTGTACTAG) | 0.439
7 | CCGTGTACATGGACCGGTTTTCCCGGTAATCCGTATTTGCT (site CCGTTTACTAG) | 0
8 | CCGTGTGCATGGACCGGTTTTCCCGGTAATCCGTATTTGAC (site CCGTGTGCTGT) | 1
9 | CCGTTAACATGGACCGGTTTTCCCGGTAATCCGTATTTGTG (site CCGTTAACTCA) | 0.0455
10 | CCGTTAACATGGACCGGTTTTCCCGGTAATCCGTATTTGTG (site CCGTTACCTCA) | 0.0226
11 | CCGTTAACATGGACCGGTTTTCCCGGTAATCCGTATTTGTG (site CCGTTAGCTCA) | 0.182
12 | CCGTTAACATGGACCGGTTTTCCCGGTAATCCGTATTTGTG (site CCGTTATCTCA) | 0.00955
13 | CCGTTAGCATGGACCGGTTTTCCCGGTAATCCGTATTTGGG (site CCGTTAGCTCA) | 0.0109
14 | CCGTTAGCATGGACCGGTTTTCCCGGTAATCCGTATTTGGG (site CCGTTAGCTCC) | 0.00956
15 | CCGTTAGCATGGACCGGTTTTCCCGGTAATCCGTATTTGGG (site CCGTTAGCTCG) | 0
16 | CCGTTAGCATGGACCGGTTTTCCCGGTAATCCGTATTTGGG (site CCGTTAGCTCT) | 0
17 | CCGTTTACATGGACCGGTTTTCCCGGTAATCCGTATTTGCT (site ACGTTTACTAG) | 0
18 | CCGTTTACATGGACCGGTTTTCCCGGTAATCCGTATTTGCT (site CAGTTTACTAG) | 0
19 | CCGTTTACATGGACCGGTTTTCCCGGTAATCCGTATTTGCT (site CCATTTACTAG) | 0
20 | CCGTTTACATGGACCGGTTTTCCCGGTAATCCGTATTTGCT (site CCCTTTACTAG) | 0
21 | CCGTTTACATGGACCGGTTTTCCCGGTAATCCGTATTTGCT (site CCGATTACTAG) | 0
22 | CCGTTTACATGGACCGGTTTTCCCGGTAATCCGTATTTGCT (site CCGCTTACTAG) | 0
23 | CCGTTTACATGGACCGGTTTTCCCGGTAATCCGTATTTGCT (site CCGGTTACTAG) | 0

Row | Sequence | recombinant UMI read abundance (log10)
24 | CCGTTTACATGGACCGGTTTTCCCGGTAATCCGTATTTGCT (site CCGTATACTAG) | 0
25 | CCGTTTACATGGACCGGTTTTCCCGGTAATCCGTATTTGCT (site CCGTCTACTAG) | 0
26 | CCGTTTACATGGACCGGTTTTCCCGGTAATCCGTATTTGCT (site CCGTGTACTAG) | 0
27 | CCGTTTACATGGACCGGTTTTCCCGGTAATCCGTATTTGCT (site CCGTTAACTAG) | 0
28 | CCGTTTACATGGACCGGTTTTCCCGGTAATCCGTATTTGCT (site CCGTTCACTAG) | 0.00422
29 | CCGTTTACATGGACCGGTTTTCCCGGTAATCCGTATTTGCT (site CCGTTGACTAG) | 0
30 | CCGTTTACATGGACCGGTTTTCCCGGTAATCCGTATTTGCT (site CCGTTTACTAA) | 0
31 | CCGTTTACATGGACCGGTTTTCCCGGTAATCCGTATTTGCT (site CCGTTTACTAC) | 0
32 | CCGTTTACATGGACCGGTTTTCCCGGTAATCCGTATTTGCT (site CCGTTTACTAG) | 0
33 | CCGTTTACATGGACCGGTTTTCCCGGTAATCCGTATTTGCT (site CCGTTTACTAT) | 0
34 | CCGTTTACATGGACCGGTTTTCCCGGTAATCCGTATTTGCT (site CCGTTTACTCG) | 0
35 | CCGTTTACATGGACCGGTTTTCCCGGTAATCCGTATTTGCT (site CCGTTTACTGG) | 0
36 | CCGTTTACATGGACCGGTTTTCCCGGTAATCCGTATTTGCT (site CCGTTTACTTG) | 0
37 | CCGTTTACATGGACCGGTTTTCCCGGTAATCCGTATTTGCT (site CCGTTTCCTAG) | 0
38 | CCGTTTACATGGACCGGTTTTCCCGGTAATCCGTATTTGCT (site CCGTTTGCTAG) | 0.00881
39 | CCGTTTACATGGACCGGTTTTCCCGGTAATCCGTATTTGCT (site CCGTTTTCTAG) | 0
40 | CCGTTTACATGGACCGGTTTTCCCGGTAATCCGTATTTGCT (site CCTTTTACTAG) | 0
41 | CCGTTTACATGGACCGGTTTTCCCGGTAATCCGTATTTGCT (site CGGTTTACTAG) | 0
42 | CCGTTTACATGGACCGGTTTTCCCGGTAATCCGTATTTGCT (site CTGTTTACTAG) | 0
43 | CCGTTTACATGGACCGGTTTTCCCGGTAATCCGTATTTGCT (site GCGTTTACTAG) | 0
44 | CCGTTTACATGGACCGGTTTTCCCGGTAATCCGTATTTGCT (site TCGTTTACTAG) | 0
45 | CCGTTTCCATGGACCGGTTTTCCCGGTAATCCGTATTTGCT (site CCGTTTACTAG) | 0
46 | CCGTTTCCATGGACCGGTTTTCCCGGTAATCCGTATTTGCT (site CCGTTTCCTAG) | 0

Row | Sequence | recombinant UMI read abundance (log10)
47 | CCGTTTCCATGGACCGGTTTTCCCGGTAATCCGTATTTGCT (site CCGTTTGCTAG) | 0
48 | CCGTTTCCATGGACCGGTTTTCCCGGTAATCCGTATTTGCT (site CCGTTTTCTAG) | 0
49 | CCTAAAACATGGACCGGTTTTCCCGGTAATCCGTATTTGAT (site CCTAAAACTAT) | 0
50 | CCTAAAACATGGACCGGTTTTCCCGGTAATCCGTATTTGAT (site CCTAAACCTAT) | 0.00551
51 | CCTAAAACATGGACCGGTTTTCCCGGTAATCCGTATTTGAT (site CCTAAAGCTAT) | 0.00636
52 | CCTAAAACATGGACCGGTTTTCCCGGTAATCCGTATTTGAT (site CCTAAATCTAT) | 0
53 | CCTAAAACATGGACCGGTTTTCCCGGTAATCCGTATTTGGC (site CCTAAAACTGC) | 0
54 | CCTAAAACATGGACCGGTTTTCCCGGTAATCCGTATTTGGC (site CCTAACACTGC) | 0
55 | CCTAAAACATGGACCGGTTTTCCCGGTAATCCGTATTTGGC (site CCTAAGACTGC) | 0
56 | CCTAAAACATGGACCGGTTTTCCCGGTAATCCGTATTTGGC (site CCTAATACTGC) | 0
57 | CCTAAAGCATGGACCGGTTTTCCCGGTAATCCGTATTTGGT (site CCTAAAGCTAA) | 0.00229
58 | CCTAAAGCATGGACCGGTTTTCCCGGTAATCCGTATTTGGT (site CCTAAAGCTAC) | 0
59 | CCTAAAGCATGGACCGGTTTTCCCGGTAATCCGTATTTGGT (site CCTAAAGCTAG) | 0
60 | CCTAAAGCATGGACCGGTTTTCCCGGTAATCCGTATTTGGT (site CCTAAAGCTAT) | 0
61 | CCTAATACATGGACCGGTTTTCCCGGTAATCCGTATTTGAC (site CCTAATACTGA) | 0
62 | CCTAATACATGGACCGGTTTTCCCGGTAATCCGTATTTGAC (site CCTAATACTGC) | 0
63 | CCTAATACATGGACCGGTTTTCCCGGTAATCCGTATTTGAC (site CCTAATACTGG) | 0
64 | CCTAATACATGGACCGGTTTTCCCGGTAATCCGTATTTGAC (site CCTAATACTGT) | 0
65 | CCTAATTCATGGACCGGTTTTCCCGGTAATCCGTATTTGGC (site CCTAATACTGC) | 0
66 | CCTAATTCATGGACCGGTTTTCCCGGTAATCCGTATTTGGC (site CCTAATCCTGC) | 0
67 | CCTAATTCATGGACCGGTTTTCCCGGTAATCCGTATTTGGC (site CCTAATGCTGC) | 0
68 | CCTAATTCATGGACCGGTTTTCCCGGTAATCCGTATTTGGC (site CCTAATTCTGC) | 0
